# Like-named read-outs stand apart in the source and are kept apart here.
# Experiments:
# CSF1R Ba/F3 cells = test: Cell viability assay, Ba/F3 cells engineered to be dependent on CSF1R; assay type: cell-based; details: Mus musculus, BaF3, Ba/F3 cells dependent on CSF1R, duplicate measurements
# CSF1R = CSF1R (Homo sapiens, UniProt P07333); test: CSF1R enzymatic IC50, Z-LYTE assay platform; assay type: biochemical
# [1] = Mouse liver microsome intrinsic clearance, Phase I; assay type: in vitro ADME; details: in vitro intrinsic clearance
# MDCK permeability assay = assay type: in vitro ADME, canine; details: dog, MDCK cell monolayer
# [2] = Mouse plasma protein binding; assay type: in vitro ADME; details: fraction bound, read-out: PPB (converted)
# ABL1 = target: T1, ABL1 (Homo sapiens, UniProt P00519); test: Kinase panel profiling: ABL1; assay type: biochemical; details: ATP equal to KM
# T1 construct: purchased Thermo Fisher Scientific (Invitrogen) SelectScreen (Z'-LYTE)
# AKT1 (PKB alpha) = target: T2, AKT1 (PKB alpha) (Homo sapiens, UniProt P31749); test: Kinase panel profiling: AKT1; assay type: biochemical; details: ATP equal to KM
# T2 construct: purchased Thermo Fisher Scientific (Invitrogen) SelectScreen (Z'-LYTE)
# AURKA (Aurora A) = target: T3, AURKA (Aurora A) (Homo sapiens, UniProt O14965); test: Kinase panel profiling: AURKA; assay type: biochemical; details: ATP equal to KM
# T3 construct: purchased Thermo Fisher Scientific (Invitrogen) SelectScreen (Z'-LYTE)
# T3 sequence (O14965 1-403): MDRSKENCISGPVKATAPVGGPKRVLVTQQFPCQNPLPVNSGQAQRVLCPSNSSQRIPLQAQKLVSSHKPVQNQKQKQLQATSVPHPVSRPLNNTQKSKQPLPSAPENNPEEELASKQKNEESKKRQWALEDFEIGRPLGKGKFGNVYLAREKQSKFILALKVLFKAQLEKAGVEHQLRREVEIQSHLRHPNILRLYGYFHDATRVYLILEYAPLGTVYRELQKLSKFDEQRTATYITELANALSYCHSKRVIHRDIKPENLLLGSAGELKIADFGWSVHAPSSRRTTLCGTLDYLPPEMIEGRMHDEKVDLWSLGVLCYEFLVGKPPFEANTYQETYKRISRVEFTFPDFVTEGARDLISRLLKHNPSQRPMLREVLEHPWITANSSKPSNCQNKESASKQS
# BTK = target: T4, BTK (Homo sapiens, UniProt Q06187); test: Kinase panel profiling: BTK; assay type: biochemical; details: ATP equal to KM
# T4 construct: purchased Thermo Fisher Scientific (Invitrogen) SelectScreen (Z'-LYTE)
# T4 sequence (Q06187 whole entry): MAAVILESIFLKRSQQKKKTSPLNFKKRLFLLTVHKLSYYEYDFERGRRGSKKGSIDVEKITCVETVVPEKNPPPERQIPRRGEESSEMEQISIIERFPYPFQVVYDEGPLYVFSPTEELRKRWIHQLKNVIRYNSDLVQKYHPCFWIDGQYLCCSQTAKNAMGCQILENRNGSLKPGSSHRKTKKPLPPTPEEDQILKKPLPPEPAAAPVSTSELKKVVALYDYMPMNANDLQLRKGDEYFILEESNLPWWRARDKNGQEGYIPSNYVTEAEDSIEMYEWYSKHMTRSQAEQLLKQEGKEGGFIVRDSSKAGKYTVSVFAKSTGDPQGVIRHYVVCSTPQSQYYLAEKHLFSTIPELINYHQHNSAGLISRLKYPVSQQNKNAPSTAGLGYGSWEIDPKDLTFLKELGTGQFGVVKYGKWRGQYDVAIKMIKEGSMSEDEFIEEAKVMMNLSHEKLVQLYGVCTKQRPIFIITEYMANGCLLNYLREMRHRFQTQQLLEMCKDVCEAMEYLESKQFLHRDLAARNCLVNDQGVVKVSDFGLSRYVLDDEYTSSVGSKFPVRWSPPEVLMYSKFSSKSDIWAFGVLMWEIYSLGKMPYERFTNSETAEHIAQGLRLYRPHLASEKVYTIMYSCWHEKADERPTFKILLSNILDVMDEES
# CSF1R (FMS) = target: T5, CSF1R (FMS) (Homo sapiens, UniProt P07333); test: Kinase panel profiling: CSF1R; assay type: biochemical; details: ATP equal to KM
# T5 construct: purchased Thermo Fisher Scientific (Invitrogen) SelectScreen (Z'-LYTE)
# ERBB4 (HER4) = target: T6, ERBB4 (HER4) (Homo sapiens, UniProt Q15303); test: Kinase panel profiling: ERBB4; assay type: biochemical; details: ATP equal to KM
# T6 construct: purchased Thermo Fisher Scientific (Invitrogen) SelectScreen (Z'-LYTE)
# FER = target: T7, FER (Homo sapiens, UniProt P16591); test: Kinase panel profiling: FER; assay type: biochemical; details: ATP equal to KM
# T7 construct: purchased Thermo Fisher Scientific (Invitrogen) SelectScreen (Z'-LYTE)
# FLT4 (VEGFR3) = target: T8, FLT4 (VEGFR3) (Homo sapiens, UniProt P35916); test: Kinase panel profiling: FLT4; assay type: biochemical; details: ATP equal to KM
# T8 construct: purchased Thermo Fisher Scientific (Invitrogen) SelectScreen (Z'-LYTE)
# FYN = target: T9, FYN (Homo sapiens, UniProt P06241); test: Kinase panel profiling: FYN; assay type: biochemical; details: ATP equal to KM
# T9 construct: purchased Thermo Fisher Scientific (Invitrogen) SelectScreen (Z'-LYTE)
# T9 sequence (P06241 whole entry): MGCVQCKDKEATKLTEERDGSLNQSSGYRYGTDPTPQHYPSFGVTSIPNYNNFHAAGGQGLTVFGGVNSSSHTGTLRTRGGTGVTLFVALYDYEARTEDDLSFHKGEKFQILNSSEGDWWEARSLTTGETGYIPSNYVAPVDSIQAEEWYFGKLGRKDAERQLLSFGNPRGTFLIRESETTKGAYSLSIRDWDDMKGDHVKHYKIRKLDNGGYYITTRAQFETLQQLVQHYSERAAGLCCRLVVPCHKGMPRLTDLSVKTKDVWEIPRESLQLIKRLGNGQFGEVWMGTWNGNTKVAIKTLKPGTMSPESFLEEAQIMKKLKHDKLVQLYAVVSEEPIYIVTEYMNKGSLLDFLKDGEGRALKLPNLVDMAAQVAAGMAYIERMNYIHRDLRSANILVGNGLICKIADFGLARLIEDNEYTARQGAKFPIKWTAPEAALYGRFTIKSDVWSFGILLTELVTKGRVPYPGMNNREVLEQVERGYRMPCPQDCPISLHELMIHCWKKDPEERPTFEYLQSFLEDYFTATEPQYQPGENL
# GSK3B (GSK3 beta) = target: T10, GSK3B (GSK3 beta) (Homo sapiens, UniProt P49841); test: Kinase panel profiling: GSK3B; assay type: biochemical; details: ATP equal to KM
# T10 construct: purchased Thermo Fisher Scientific (Invitrogen) SelectScreen (Z'-LYTE)
# T10 sequence (P49841 whole entry): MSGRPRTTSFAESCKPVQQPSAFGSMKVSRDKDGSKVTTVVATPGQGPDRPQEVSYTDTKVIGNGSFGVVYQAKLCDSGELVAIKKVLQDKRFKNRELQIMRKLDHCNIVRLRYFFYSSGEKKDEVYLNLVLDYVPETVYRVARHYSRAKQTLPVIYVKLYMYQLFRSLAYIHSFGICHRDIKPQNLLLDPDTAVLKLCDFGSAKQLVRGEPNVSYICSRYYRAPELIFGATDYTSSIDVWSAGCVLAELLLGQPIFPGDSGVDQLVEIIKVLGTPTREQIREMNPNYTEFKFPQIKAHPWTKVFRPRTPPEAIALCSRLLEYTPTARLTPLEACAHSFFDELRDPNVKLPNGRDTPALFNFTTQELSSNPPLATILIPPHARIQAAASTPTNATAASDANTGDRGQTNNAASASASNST
# MKNK1 (MNK1) = target: T11, MKNK1 (MNK1) (Homo sapiens, UniProt Q9BUB5); test: Kinase panel profiling: MKNK1; assay type: biochemical; details: ATP equal to KM
# T11 construct: purchased Thermo Fisher Scientific (Invitrogen) SelectScreen (Z'-LYTE)
# T11 sequence (Q9BUB5 whole entry): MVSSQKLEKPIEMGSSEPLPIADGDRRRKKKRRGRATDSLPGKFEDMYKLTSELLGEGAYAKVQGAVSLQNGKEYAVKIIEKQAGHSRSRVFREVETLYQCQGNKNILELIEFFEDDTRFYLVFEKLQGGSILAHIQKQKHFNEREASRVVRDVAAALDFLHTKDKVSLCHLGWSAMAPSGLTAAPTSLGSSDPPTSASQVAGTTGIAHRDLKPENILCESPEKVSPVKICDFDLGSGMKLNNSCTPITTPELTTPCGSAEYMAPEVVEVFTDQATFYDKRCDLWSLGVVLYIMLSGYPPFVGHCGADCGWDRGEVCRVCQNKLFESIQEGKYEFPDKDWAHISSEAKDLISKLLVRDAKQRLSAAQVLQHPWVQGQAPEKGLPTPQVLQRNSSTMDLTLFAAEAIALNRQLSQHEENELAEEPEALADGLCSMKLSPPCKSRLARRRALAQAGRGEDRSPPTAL
# PAK1 = target: T12, PAK1 (Homo sapiens, UniProt Q13153); test: Kinase panel profiling: PAK1; assay type: biochemical; details: ATP equal to KM
# T12 construct: purchased Thermo Fisher Scientific (Invitrogen) SelectScreen (Z'-LYTE)
# T12 sequence (Q13153 whole entry): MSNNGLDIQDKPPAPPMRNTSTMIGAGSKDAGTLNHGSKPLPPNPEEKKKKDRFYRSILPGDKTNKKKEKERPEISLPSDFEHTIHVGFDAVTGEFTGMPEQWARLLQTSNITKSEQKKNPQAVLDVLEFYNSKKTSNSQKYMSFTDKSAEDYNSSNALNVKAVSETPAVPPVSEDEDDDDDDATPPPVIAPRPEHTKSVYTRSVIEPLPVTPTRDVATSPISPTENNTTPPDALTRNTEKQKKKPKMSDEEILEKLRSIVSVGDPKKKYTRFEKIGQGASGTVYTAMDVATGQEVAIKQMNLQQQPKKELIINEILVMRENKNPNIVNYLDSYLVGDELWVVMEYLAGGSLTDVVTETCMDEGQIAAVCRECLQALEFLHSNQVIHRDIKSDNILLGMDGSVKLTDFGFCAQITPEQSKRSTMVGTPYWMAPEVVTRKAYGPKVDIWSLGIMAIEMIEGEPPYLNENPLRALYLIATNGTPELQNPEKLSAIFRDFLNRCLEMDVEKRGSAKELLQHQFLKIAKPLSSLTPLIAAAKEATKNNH
# PDGFRB (PDGFR beta) = PDGFRB (PDGFR beta) (Homo sapiens, UniProt P09619); test: Kinase panel profiling: PDGFRB; assay type: biochemical; details: ATP equal to KM
# PDGFRB (PDGFR beta), sequence (P09619 33-1106): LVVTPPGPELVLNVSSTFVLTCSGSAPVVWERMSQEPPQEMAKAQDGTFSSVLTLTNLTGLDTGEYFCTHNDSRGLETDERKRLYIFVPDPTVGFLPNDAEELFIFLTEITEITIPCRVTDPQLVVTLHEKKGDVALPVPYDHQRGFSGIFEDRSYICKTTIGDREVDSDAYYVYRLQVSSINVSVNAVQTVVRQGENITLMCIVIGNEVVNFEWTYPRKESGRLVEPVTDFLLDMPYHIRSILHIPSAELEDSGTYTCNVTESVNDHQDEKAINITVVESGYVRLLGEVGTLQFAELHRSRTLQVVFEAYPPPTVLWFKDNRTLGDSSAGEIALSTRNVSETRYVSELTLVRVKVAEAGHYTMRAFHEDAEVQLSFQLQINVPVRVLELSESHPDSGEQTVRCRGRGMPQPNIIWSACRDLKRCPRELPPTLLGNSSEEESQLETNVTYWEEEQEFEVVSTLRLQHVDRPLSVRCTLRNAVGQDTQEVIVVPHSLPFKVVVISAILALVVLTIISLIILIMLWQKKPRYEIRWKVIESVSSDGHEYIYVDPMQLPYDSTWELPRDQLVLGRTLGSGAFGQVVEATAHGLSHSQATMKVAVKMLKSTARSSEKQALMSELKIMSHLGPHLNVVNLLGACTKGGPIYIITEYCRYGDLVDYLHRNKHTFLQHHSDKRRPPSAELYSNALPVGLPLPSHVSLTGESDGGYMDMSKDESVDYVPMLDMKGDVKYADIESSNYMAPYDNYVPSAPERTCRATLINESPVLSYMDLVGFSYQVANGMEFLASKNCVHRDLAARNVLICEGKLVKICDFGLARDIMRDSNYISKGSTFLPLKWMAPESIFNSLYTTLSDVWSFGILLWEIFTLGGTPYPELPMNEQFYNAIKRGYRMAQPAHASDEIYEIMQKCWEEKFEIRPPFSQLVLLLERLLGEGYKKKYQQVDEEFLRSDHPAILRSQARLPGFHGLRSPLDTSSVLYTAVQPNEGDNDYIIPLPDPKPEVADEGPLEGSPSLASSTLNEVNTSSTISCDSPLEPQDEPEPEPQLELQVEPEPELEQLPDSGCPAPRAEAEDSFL
# RET = RET (Homo sapiens, UniProt P07949); test: Kinase panel profiling: RET; assay type: biochemical; details: ATP equal to KM
# RET, sequence (P07949 29-1114): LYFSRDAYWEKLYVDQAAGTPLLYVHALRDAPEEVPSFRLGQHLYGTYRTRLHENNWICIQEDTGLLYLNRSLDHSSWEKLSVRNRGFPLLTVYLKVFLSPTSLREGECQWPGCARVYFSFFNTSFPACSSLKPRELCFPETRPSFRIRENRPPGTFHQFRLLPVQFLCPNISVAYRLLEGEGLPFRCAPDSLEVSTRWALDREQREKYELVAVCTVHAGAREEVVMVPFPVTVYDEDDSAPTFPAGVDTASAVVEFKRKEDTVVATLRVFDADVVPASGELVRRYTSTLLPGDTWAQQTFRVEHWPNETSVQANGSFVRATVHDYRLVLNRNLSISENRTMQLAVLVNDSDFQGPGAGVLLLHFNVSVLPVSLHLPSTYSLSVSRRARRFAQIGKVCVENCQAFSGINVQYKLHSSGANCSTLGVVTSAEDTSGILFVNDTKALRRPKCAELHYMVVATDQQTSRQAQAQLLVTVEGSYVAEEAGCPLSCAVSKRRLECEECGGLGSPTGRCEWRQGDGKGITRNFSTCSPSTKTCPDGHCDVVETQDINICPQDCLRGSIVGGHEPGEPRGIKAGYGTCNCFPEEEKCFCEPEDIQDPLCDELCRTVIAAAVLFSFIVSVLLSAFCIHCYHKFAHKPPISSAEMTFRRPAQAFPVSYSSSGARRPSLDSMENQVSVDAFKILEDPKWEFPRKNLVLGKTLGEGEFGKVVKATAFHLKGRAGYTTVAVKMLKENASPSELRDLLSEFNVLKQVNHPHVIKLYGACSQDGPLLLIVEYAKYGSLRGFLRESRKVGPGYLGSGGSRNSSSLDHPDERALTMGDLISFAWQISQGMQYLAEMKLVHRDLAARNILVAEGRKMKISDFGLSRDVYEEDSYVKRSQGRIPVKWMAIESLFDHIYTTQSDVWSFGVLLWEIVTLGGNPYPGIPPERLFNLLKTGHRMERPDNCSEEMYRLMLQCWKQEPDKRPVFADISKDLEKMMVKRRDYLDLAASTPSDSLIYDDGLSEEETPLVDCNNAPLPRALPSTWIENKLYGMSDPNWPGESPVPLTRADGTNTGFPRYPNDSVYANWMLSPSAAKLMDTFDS
# ROCK1 = ROCK1 (Homo sapiens, UniProt Q13464); test: Kinase panel profiling: ROCK1; assay type: biochemical; details: ATP equal to KM
# SRC = SRC (Homo sapiens, UniProt P12931); test: Kinase panel profiling: SRC; assay type: biochemical; details: ATP equal to KM
# [3] = 1000 nM test concentration, read-out: Average inhibition (%)
# [4] = 1000 nM, first data point, read-out: Inhibition (%)
# [5] = 1000 nM, second data point, read-out: Inhibition (%)
smiles,measurement,setting,value
"Cc1cccc(CN(C)c2ncnc3[nH]c(-c4cn(Cc5cccnc5)nn4)cc23)c1 [Compound 27a, N-Methyl-N-(3-methylbenzyl)-6-(1-(pyridin-3-ylmethyl)-1H-1,2,3-triazol-4-yl)-7H-pyrrolo[2,3-d]pyrimidin-4-amine]",IC50,CSF1R Ba/F3 cells,300 nM
same,Hill coefficient,CSF1R; Z-LYTE CSF1R IC50 curve,0.903
same,IC50,"CSF1R; Z-LYTE, 10-point titrations in duplicates, ATP equal to KM ca. 10 µM, read-out: CSF1R enz. IC50",0.4 ± 0.2 nM
same,MLM,[1],295 µL/min/mg
same,Papp A→B,MDCK permeability assay; A-B direction,1.27 ×10⁻⁶ cm/s
same,Papp B→A,MDCK permeability assay; B-A direction,3.18 ×10⁻⁶ cm/s
same,efflux ratio,MDCK permeability assay; read-out: Ratio Papp B > A/Papp A > B,2.5
same,fraction unbound,[2],< 0.01
same,inhibition at 1 µM,ABL1; [3],99%
same,inhibition at 1 µM,ABL1; [4],99%
same,inhibition at 1 µM,AKT1 (PKB alpha); [3],2%
same,inhibition at 1 µM,AKT1 (PKB alpha); [4],3%
same,inhibition at 1 µM,AKT1 (PKB alpha); [5],1%
same,inhibition at 1 µM,AURKA (Aurora A); [3],38%
same,inhibition at 1 µM,AURKA (Aurora A); [4],35%
same,inhibition at 1 µM,AURKA (Aurora A); [5],40%
same,inhibition at 1 µM,BTK; [3],46%
same,inhibition at 1 µM,BTK; [4],50%
same,inhibition at 1 µM,BTK; [5],42%
same,inhibition at 1 µM,CSF1R (FMS); [3],99%
same,inhibition at 1 µM,CSF1R (FMS); [4],99%
same,inhibition at 1 µM,ERBB4 (HER4); [3],14%
same,inhibition at 1 µM,ERBB4 (HER4); [4],13%
same,inhibition at 1 µM,ERBB4 (HER4); [5],15%
same,inhibition at 1 µM,FER; [3],15%
same,inhibition at 1 µM,FER; [4],16%
same,inhibition at 1 µM,FER; [5],14%
same,inhibition at 1 µM,FLT4 (VEGFR3); [3],16%
same,inhibition at 1 µM,FLT4 (VEGFR3); [4],15%
same,inhibition at 1 µM,FLT4 (VEGFR3); [5],16%
same,inhibition at 1 µM,FYN; [3],76%
same,inhibition at 1 µM,FYN; [4],75%
same,inhibition at 1 µM,FYN; [5],77%
same,inhibition at 1 µM,GSK3B (GSK3 beta); [3],61%
same,inhibition at 1 µM,GSK3B (GSK3 beta); [4],59%
same,inhibition at 1 µM,GSK3B (GSK3 beta); [5],62%
same,inhibition at 1 µM,MKNK1 (MNK1); [3],2%
same,inhibition at 1 µM,MKNK1 (MNK1); [4],3%
same,inhibition at 1 µM,MKNK1 (MNK1); [5],1%
same,inhibition at 1 µM,PAK1; [3],2%
same,inhibition at 1 µM,PAK1; [4],4%
same,inhibition at 1 µM,PAK1; [5],0%
same,inhibition at 1 µM,PDGFRB (PDGFR beta); [3],34%
same,inhibition at 1 µM,PDGFRB (PDGFR beta); [4],32%
same,inhibition at 1 µM,PDGFRB (PDGFR beta); [5],35%
same,inhibition at 1 µM,RET; [3],29%
same,inhibition at 1 µM,RET; [4],28%
same,inhibition at 1 µM,RET; [5],30%
same,inhibition at 1 µM,ROCK1; [3],0%
same,inhibition at 1 µM,ROCK1; [4],2%
same,inhibition at 1 µM,ROCK1; [5],-2%
same,inhibition at 1 µM,SRC; [3],96%
same,inhibition at 1 µM,SRC; [4],96%
same,inhibition at 1 µM,SRC; [5],95%

# Source: publication PMC12196347, “Evaluating Triazole-Substituted Pyrrolopyrimidines as CSF1R Inhibitors” (Molecules, 2025)
